One data set is described as follows: GSH adduct screening. In kind it is in vitro ADME, human. To be noted: 1 μM, 3 h at 37° C., HLM 0.5 mg/mL, NADPH, with and without GSH. The protocol:
Test compounds (final concentration 1 μM, 0.25% organic) were incubated for 3 h at 37° C. in commercially sourced, pooled donor, human liver microsomes (HLM, final concentration 0.5 mg/mL) with and without addition of glutathione (GSH; final concentration […]). The metabolic reaction was initiated by addition of microsomal solution to the mixture of cofactor NADPH (final concentration 1 mM), test compound and GSH. After 3 h of incubation in a water bath at 37° C., the reaction was stopped by addition of 0.2% formic acid in acetonitrile, followed by mixing and centrifugation (16000 g for 5 minutes). Supernatant was diluted (1:1) with HPLC water then analyzed by liquid chromatography (LC)-quadrupole time-of-flight mass spectrometry (QTOF-MS). Accurate mass MS and MS/MS spectra from samples with GSH and without GSH, respectively, were compared to identify detectable GSH and/or cysteine related adducts.

Data set [1] is described as follows: Hepatocyte intrinsic clearance assay. In kind it is in vitro ADME, human. To be noted: human, pooled donor, cryopreserved hepatocytes, pH 7.4, 0.1 μM, 2 h at 37° C., 1×10^6 hepatocytes/mL; * measured on 3 separate occasions, ** on a single occasion. The procedure, abridged: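 Test compound at 0.1 μM final (0.05% organic) incubated 2 h at 37° C with shaking in supplemented Leibovitz L-15 medium (pH7.4), 1×10^6 hepatocytes/mL final. Samples taken 1–120 min, quenched in acetonitrile, analyzed by LC-MS/MS. CLint derived from slope of % remaining versus time.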

Data set [2] has as its system panel of 403 wild type kinases. Nature of the data set: Broad kinase selectivity, Eurofins DiscoverX scanMAX panel. The note with it: screening concentration 100 nM; for Number of Hits: 403 non-mutant kinases. In kind it is binding, primarily of human origin. The method, then:
Protein kinase profiling of the inhibitors (Fabian, M. A. et al. inhibitors. Nat. […] Selectivity Score or S-score is a quantitative measure of compound selectivity. It was calculated by dividing the number of kinases that compounds bind to by the total number of distinct kinases tested, excluding mutant variants. S=Number of hits/Number of assays. This value can be calculated using % Ctrl as a potency threshold (below) and provides a quantitative method of describing compound selectivity to facilitate comparison of different compounds.

Entries after “also recorded” stand apart in the source; their conditions may differ.

Consider 1 compound from US11780851B2, “LRRK2 inhibitors” (H. Lundbeck A/S, priority 2021, dated 2023).

With `[2H]C([2H])([2H])c1c2c(nn1C1CCOCC1)OCCCn1nc(Cl)c3cnc(nc31)N2` [Example 13, 8-Chloro-3-(methyl-d3)-2-(tetrahydro-2H-pyran-4-yl)-2,4,12,13-tetrahydro-11H-5,7-(azenometheno)dipyrazolo[3,4-b:5′,1′-g][1]oxa[4,6,8]triazacycloundecine], in the data set “GSH adduct screening”, the “Adduct detected in GSH supplemented HLMs” value was “did not form GSH adduct; also recorded: None detected”. The CLint scaled at 0.1 μM in data set [1] was 6 mL/min/kg. Moreover, the “Selectivity Score” value in data set [2] (S(1): % Ctrl < 1) is listed as 0.002; in data set [2] (S(10): % Ctrl < 10), 0.03; in data set [2] (S(35): % Ctrl < 35), 0.094. Moreover, the “Number of Hits” value in data set [2] (S(1): % Ctrl < 1, hit is LRRK2 WT) came to 1; in data set [2] (S(10): % Ctrl < 10), 12; in data set [2] (S(35): % Ctrl < 35) it was 38.
